The values that follow come from ChEMBL document CHEMBL1133027, “Novel inhibitors of HIV protease: design, synthesis and biological evaluation of picomolar inhibitors containing cyclic P1/P2 scaffolds” (Bioorg Med Chem Lett, 2000).

Where only a bound is given, the exact number is not on record here.

One test has as its system MT4. Kind of test: Compound was evaluated for its antiviral inhibition in MT-4 cell culture. As to conditions: Homo sapiens. Format: functional, cell-based.
Test [1] deals with Human immunodeficiency virus type 1 protease (Human immunodeficiency virus 1, UniProt Q72874). Kind of test: Inhibition of HIV protease.

Usually IC50 stands for the point on the concentration scale where inhibition reaches its midpoint. Low readings indicate greater potency in that assay, high ones weaker potency in that assay. Consider `CC(C)CN(C[C@@H](O)[C@H](Cc1ccccc1)NC(=O)O[C@H]1CCOC1)S(=O)(=O)c1ccc(N)cc1`, for which the IC50 in the test on MT4 is 100 nM. Broadly, the Ki is a dissociation constant, usually derived from enzyme kinetics or from competition with a known ligand. A high value points to a looser hold on the target. As for `O=C(N[C@H]1c2ccccc2C[C@H]1O)[C@H](Cc1ccccc1)C[C@H](O)CN1[C@@H](Cc2ccccc2)CN(Cc2ccccc2)S1(=O)=O`, affinity in test [1] was put at a Ki of 0.8 nM. Moreover, the IC50 in the test with MT4 worked out at 1500 nM. As to `O=C1N[C@H](Cc2ccccc2)C(=O)[C@H]1Cc1ccccc1`, the Ki in test [1] stood at 0.05 nM. Also, 300 nM corresponded to half-maximal inhibition with MT4 (IC50). Compound `O=C(N[C@H]1c2ccccc2C[C@H]1O)[C@H](Cc1ccccc1)C[C@@H](O)CN1C(=O)CC[C@@H]1Cc1ccccc1` returned an IC50 in the test with MT4 greater than 50000 nM.

`CC(C)(C)NC(=O)[C@@H]1CN(Cc2cccnc2)CCN1C[C@@H](O)C[C@@H](Cc1ccccc1)C(=O)N[C@H]1c2ccccc2C[C@H]1O` registered an IC50 with MT4 of 40 nM. Consider `O=C(N[C@H]1c2ccccc2C[C@H]1O)[C@H](Cc1ccccc1)C[C@H](O)CN1C(=O)[C@H](Cc2ccccc2)C[C@@H]1Cc1ccccc1`, for which the Ki in test [1] was greater than 0.5 nM. On to `O=C(N[C@H]1c2ccccc2C[C@H]1O)[C@H](Cc1ccccc1)C[C@H](O)CN1C(=O)CC[C@@H]1Cc1ccccc1`, for which, in test [1], the Ki was 330 nM. Further, the IC50 in the test on MT4 is greater than 50000 nM. For the compound `CC(C)(C)NC(=O)[C@@H]1C[C@@H]2CCCC[C@@H]2CN1C[C@@H](O)[C@H](Cc1ccccc1)NC(=O)[C@H](CC(N)=O)NC(=O)c1ccc2ccccc2n1`, in the test with MT4, half-maximal inhibition (IC50) required 20 nM. For `O=C(N[C@H]1c2ccccc2C[C@H]1O)[C@H](Cc1ccccc1)C[C@H](O)CN1[C@@H](Cc2ccccc2)C[C@H](Cc2ccccc2)S1(=O)=O`, the inhibition constant Ki in test [1] worked out at 16 nM. For the compound `CC(C)c1nc(CN(C)C(=O)N[C@H](C(=O)N[C@@H](Cc2ccccc2)C[C@H](O)[C@H](Cc2ccccc2)NC(=O)OCc2cncs2)C(C)C)cs1` [RITONAVIR], the midpoint of inhibition with MT4, the IC50, lay at 210 nM. On to `O=C(N[C@H]1c2ccccc2C[C@H]1O)[C@H](Cc1ccccc1)C[C@H](O)CN1C(=O)N(Cc2ccccc2)C[C@@H]1Cc1ccccc1`, for which the inhibition constant Ki in test [1] was found to be 1.2 nM. This compound had an IC50 in the test with MT4 of 300 nM.

In test [1], `O=C(N[C@H]1c2ccccc2C[C@H]1O)[C@H](Cc1ccccc1)C[C@H](O)CN1C(=O)[C@@H](Cc2ccccc2)C[C@@H]1Cc1ccccc1` came in with a Ki of 0.05 nM. Also, the half-inhibitory concentration (IC50) with MT4 is 300 nM. As to `Cc1c(O)cccc1C(=O)N[C@@H](CSc1ccccc1)[C@H](O)CN1C[C@H]2CCCC[C@H]2C[C@H]1C(=O)NC(C)(C)C`, the IC50 in the test on MT4 is 50 nM.
